Results taken from patent US20210348107A1, “DEVICE AND SYSTEMS COMPRISING ELECTRODE ARRAYS FOR ELECTROCONDUCTIVE CELLS” (UNIVERSITY OF WASHINGTON, priority 2018, published 2021).

Key:
nerve terminal = settings: cited from earlier work
neurons = settings: following spinal cord, head injury, and cerebral ischemia; by blocking excitotoxicity; cited from earlier work
human cells = settings: cited from earlier work
ALS patients = settings: cited from earlier work
CMT2 neurons [1] = test: Live cell imaging of mitochondrial transport along axons of CMT2 iPSC motor neurons; assay type: cell-based, human
Experimental: Mitochondrial transport along axons is evaluated using live cell imaging of cultured neurons. Cells are infected with a lentiviral vector expressing mitochondrially targeted fluorescent probe dsRed (mito-dsRed) permitting real-time assessment of mitochondrial movement. Cells are placed within an environmental chamber mounted on an epifluorescent microscope and mitochondrial movement is recorded for 10 minutes with 3-second time-lapse intervals. Image analysis is performed with ImageJ, and Matlab code can be used, for example, to calculate mitochondrial velocity by measuring the distance between the position of individual mitochondria at the start and end of time-lapse recordings and dividing by the time elapsed. This provides a measure of overall transport velocity that includes anterograde and retrograde movements and stationary periods. Mitochondria are then classified as motile (velocity >0.1 μm s-1) or stationary (velocity ≤0.1 μm s-1), in line with disclosed methods (see e.g., Saporta et al. Experimental neurology. 2015; 263:190-9). Immunostaining is used to quantify mitochondrial density within the developing growth cone of cultured neurons as a means to evaluate the effect of altered transport on presynaptic development. To account for time dependent maturation, neurons are evaluated for all end-points following 1, 2, 3, and 4 weeks in culture. […]

CMT2 neurons [2] = test: Acetylated α-tubulin levels in CMT2 neurons after HDAC6 inhibitor treatment; assay type: cell-based, human; settings: data not shown
Text: Treatment with this compound was also found to improve both the absolute velocity and the total number of moving axonal mitochondria. Decreased acetylated α-tubulin abundance is a characteristic feature of CMT2, and has been directly linked to severe axonal transport deficits in mouse models of the disease. […] The NMJ platform constitutes the ideal model for performing assessment of whether the reported changes result in restoration of WT NMJ phenotypes. Furthermore, the establishment of methods for screening compound action using this platform is translatable to other drug candidates and models of other neuropathic disease states.

Nc1ccncc1N [3,4-diaminopyridine]
acetylcholine release from the nerve terminal (nerve terminal): enhances
conduction in unmyelinated nerves (nerve terminal): improves

Cc1cccc(C)c1OCC(C)N (centres unmarked) [Mexiletine]
protection of neurons (neurons): protective of neurons

O=C(NCCO[N+](=O)[O-])c1cccnc1 [Nicorandil]
mitochondrial production of reactive oxygen species (ROS) (human cells): limit mitochondrial production of reactive oxygen species

Nc1nc2ccc(OC(F)(F)F)cc2s1 [Riluzole]
prolongation of life (ALS patients): prolonging life by a few months

CN1CCc2c(c3ccccc3n2Cc2ccc(C(=O)NO)cc2)C1 [Tubastatin A]
absolute velocity of moving axonal mitochondria (CMT2 neurons [1]): improve
total number of moving axonal mitochondria (CMT2 neurons [1]): improve
levels of acetylated α-tubulin (CMT2 neurons [2]): significantly improved
